Experimental data: publication PMC9780888, “4-Isobutylmethcathinone—A Novel Synthetic Cathinone with High In Vitro Cytotoxicity and Strong Receptor Binding Preference of Enantiomers” (Pharmaceuticals, 2022)
Counter-ions that a name gives are not always drawn.

Molecular target: T1, dopamine receptor DAR3 (Homo sapiens, UniProt P35462)
T1 construct: host or cells: HTLA (HEK 293-derived)
Assay: PRESTO-Tango β-arrestin 2 recruitment assay, DAR3
Type: cell-based
Conditions: for increase in RLU compared to the control: DAR3, 500 nM
From the text: However, binding to a specific receptor/transporter and, thus, the mechanism of action of a given cathinone always depends on the specific structure of the evaluated compound [37]. In this study, the binding activity of IBMcat and its enantiomers was verified by PRESTO-Tango (parallel receptor expression and screening via transcriptional output, with transcriptional activation following arrestin-2 translocation) assay using the HTLA cell line stably producing β-arrestin-2 in a fusion with TEV and luciferase production driven by tTA. For this purpose, the HTLA cells were transiently transfected with plasmid DNA encoding the dopamine receptors type 1-4 (DAR1-4), which also contain the TEV protease cleavage site followed by tTA at the 3’-end (DAR1-Tango, DAR2-Tango, DAR3-Tango, DAR4-Tango). In the case of the receptor activation by a ligand, in transfected cells, the receptor is desensitized by β-arrestin fused to TEV protease. This brings the TEV protease close to the site that specifically cleaves and, thus, the transcription factor can be cleaved. The transcription factor then translocates to the cell nucleus, in which it triggers the transcription of the target gene for luciferase production which can be determined by the light emitted from luciferin conversion to oxyluciferin. Here, the pronounced luminescence was recorded for all DAR1-4 types in HTLA cells treated with IBMCat and its enantiomers (Figure 8).
The HTLA cell line was used for the PRESTO-Tango β-arrestin recruitment assay. […]
The transfected HTLA cells were incubated for 24 h, and then 1 × 10^4 cells were seeded per well of a white 96-well clear bottom plate (Brand, Germany) in 40 μL of DMEM with 1% charcoal-stripped FBS (Thermo Fisher Scientific, USA). […] After 5 min., the luminescence was measured using a multi-mode microplate reader SpectraMax iD5 (Molecular Devices, San Jose, CA, USA) measuring the entire wavelength spectrum. All samples were measured in quadruplicates. The data were evaluated by Prism 7 software (GraphPad, San Jose, CA, USA).

T1 sequence (P35462 whole entry): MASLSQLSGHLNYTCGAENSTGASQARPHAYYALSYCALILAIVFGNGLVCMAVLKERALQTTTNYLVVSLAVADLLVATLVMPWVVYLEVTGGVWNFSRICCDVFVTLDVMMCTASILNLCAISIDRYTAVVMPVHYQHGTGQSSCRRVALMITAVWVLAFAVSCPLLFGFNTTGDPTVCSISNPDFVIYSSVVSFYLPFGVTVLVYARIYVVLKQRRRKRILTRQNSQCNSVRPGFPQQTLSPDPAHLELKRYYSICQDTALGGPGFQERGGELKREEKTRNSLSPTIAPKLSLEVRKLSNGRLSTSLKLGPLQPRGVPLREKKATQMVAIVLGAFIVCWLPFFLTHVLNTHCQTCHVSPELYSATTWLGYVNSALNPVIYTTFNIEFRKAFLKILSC

Row | Structure (SMILES) | increase in RLU compared to the control | effect on DAR3-expressing cells (0-500 nM)
1 | CNC(C)C(=O)c1ccc(CC(C)C)cc1.Cl (stereo not drawn) [IBMcat, 4-isobutylmethcathinone hydrochloride] | 5 fold | –
2 | CN[C@H](C)C(=O)c1ccc(CC(C)C)cc1 [R-IBMCat] | – | no effect
3 | CN[C@@H](C)C(=O)c1ccc(CC(C)C)cc1 [S-IBMCat, (S)-4-isobutylmethcathinone hydrochloride] | 6.5 fold | –
